Experimental data published in patent publication US20260053861A1, “CELL COMPOSITIONS AND METHODS OF USING THE SAME” (THE REGENTS OF THE UNIVERSITY OF CALIFORNIA, priority 2022, published 2026).
Structures can show the parent of a compound that is named as a salt. Residues, ends and D or L forms follow the SMILES beside them.

The molecules below were run on hPSC-SCs. Conditions: not given.

| SMILES | z.score.t |
| --- | --- |
| CC[C@H]1[C@@H]2C[C@H]3[C@@H]4N(C)c5ccccc5[C@]45C[C@@H]([C@H]2[C@H]5O)N3[C@@H]1O [Ajmaline] | 0.1767 |
| CCCSc1ccc2nc(NC(=O)OC)[nH]c2c1 [Albendazole] | −1.079 |
| CCC(=O)OCC(=O)[C@@]1(OC(=O)CC)[C@H](C)C[C@H]2[C@H]3[C@H]([C@@H](O)C[C@@]21C)[C@@]1(C)C=CC(=O)C=C1C[C@H]3Cl [Alclometasone dipropionate] | 1.456 |
| C=CC[N@@+]12CC[C@@]34c5ccccc5N5/C=C6/[C@H]7C[C@H]8[C@@]9(CC[N@@+]8(CC=C)C/C7=C/CO)c7ccccc7N(/C=C(/[C@@H](C[C@@H]31)/C(=C\CO)C2)[C@H]54)[C@@H]69.[Cl-].[Cl-] [Alcuronium chloride] | −0.8925 |
| CC(=O)OCC(=O)[C@H]1CC[C@H]2[C@@H]3CC[C@H]4C[C@H](O)CC[C@]4(C)[C@H]3C(=O)C[C@]12C [Alfadolone acetate] | 0.3651 |
| NCCCCCC(=O)O [Aminocaproic acid] | −0.4749 |
| CN(C)CCC=C1c2ccccc2CCc2ccccc21.Cl [Amitryptiline hydrochloride] | −0.7142 |
| CCCc1ncc(C[n+]2ccccc2C)c(N)n1 [Amprolium hydrochloride] | −1.615 |
| c1cncc([C@@H]2CCCCN2)c1 [Anabasine] | −0.1239 |
| C[C@]12CC[C@@H](O)C[C@@H]1CC[C@@H]1[C@@H]2CC[C@]2(C)C(=O)CC[C@@H]12 [Androsterone] | −1.265 |
| COc1ccc(C[C@H]2NC[C@H](O)[C@H]2OC(C)=O)cc1 [Anisomycin] | −2.056 |
| Cc1cc(=O)n(-c2ccccc2)n1C [Antipyrine] | −0.2131 |
| COC(=O)C1=CCCN(C)C1 [Arecoline hydrobromide] | −0.7049 |
| C=C1[C@@H]2CC[C@H]3[C@]4(C)C[C@H](O[C@@H]5O[C@H](CO)[C@@H](OS(=O)(=O)O)[C@H](OS(=O)(=O)O)[C@H]5OC(=O)CC(C)C)C[C@@H](C(=O)O)[C@H]4CC[C@]3(C2)[C@@H]1O [Atractyloside potassium salt] | −0.7376 |
| CN1[C@@H]2CC[C@H]1C[C@@H](OC(=O)C(CO)c1ccccc1)C2 (stereo partly drawn) [Atropine sulfate monohydrate] | −0.9654 |
| CC1=CC(=O)C2=C(C)C[C@H](O)[C@@H]3[C@H](OC(=O)[C@H]3C)[C@H]12 [Austricine hydrate] | −0.411 |
| OC(c1ccccc1)(c1ccccc1)C1CCNCC1 [Azacyclonol] | 0.5179 |
| Cc1n[nH]c(=O)[nH]c1=O [Azathymine, 6] | −0.5337 |
| CCC1(C)CC(=O)NC(=O)C1 [Bemegride] | 0.3241 |

Same assay, conditions: HTS viability of hPSC-SCs in the presence of 30 mM glucose; Prestwick library; Table S4

| SMILES | z.score.t |
| --- | --- |
| COC(=O)C1=CO[C@@H](C)[C@H]2CN3CCc4c([nH]c5ccccc45)[C@@H]3C[C@H]12.Cl [Ajmalicine hydrochloride] | −0.6111 |
| CCCCC(CC)CNC(=N)NC(=N)NCCCCCCNC(=N)NC(=N)NCC(CC)CCCC (stereo not drawn) [Alexidine dihydrochloride] | −1.733 |
| COc1cc2nc(N(C)CCCNC(=O)C3CCCO3)nc(N)c2cc1OC (stereo not drawn) [Alfuzosin hydrochloride] | −1.061 |
| C=CCN1CCCC1CNC(=O)c1cc2[nH]nnc2cc1OC (stereo not drawn) [Alizapride HCl] | 0.5437 |
| NC(=O)NC1NC(=O)NC1=O (stereo not drawn) [Allantoin] | 0.8036 |
| C=CCc1ccccc1OCC(O)CNC(C)C (stereo not drawn) [Alprenolol hydrochloride] | −0.2572 |
| CCCCC[C@H](O)/C=C/[C@H]1[C@H](O)CC(=O)[C@@H]1CCCCCCC(=O)O [Alprostadil] | 0.3375 |
| C=CCSCC1Nc2cc(Cl)c(S(N)(=O)=O)cc2S(=O)(=O)N1 (stereo not drawn) [Althiazide] | −0.1239 |
| CN(C)c1nc(N(C)C)nc(N(C)C)n1 [Altretamine] | −0.7567 |
| Nc1c(Br)cc(Br)cc1CN[C@H]1CC[C@H](O)CC1 [Ambroxol hydrochloride] | 0.837 |
| Cc1c(N(C)C)c(=O)n(-c2ccccc2)n1C [Amidopyrine] | −0.2278 |
| NCC[C@H](O)C(=O)N[C@@H]1C[C@H](N)[C@@H](O[C@H]2O[C@H](CN)[C@@H](O)[C@H](O)[C@H]2O)[C@H](O)[C@H]1O[C@H]1O[C@H](CO)[C@@H](O)[C@H](N)[C@H]1O [Amikacin hydrate] | −0.4543 |
| N=C(N)NC(=O)c1nc(Cl)c(N)nc1N [Amiloride hydrochloride dihydrate] | 0.07016 |
| Nc1ccc(C(=O)NCC(=O)O)cc1 [Aminohippuric acid] | 0.8825 |
| Cn1c(=O)c2[nH]cnc2n(C)c1=O [Aminophylline] | 1.208 |
| c1ccc(CNc2ncnc3[nH]cnc23)cc1 [Aminopurine, 6-benzyl] | 0.3206 |
| CCCCc1oc2ccccc2c1C(=O)c1cc(I)c(OCCN(CC)CC)c(I)c1 [Amiodarone hydrochloride] | −1.609 |
| CN(C)CCCO[C@@H]1[C@H]2OC(C)(C)O[C@H]2O[C@@H]1[C@H](O)CO [Amiprilose hydrochloride] | 1.178 |
| CCN(CC)Cc1cc(Nc2ccnc3cc(Cl)ccc23)ccc1O [Amodiaquin dihydrochloride dihydrate] | −1.767 |
| Clc1ccc2c(c1)C(N1CCNCC1)=Nc1ccccc1O2 [Amoxapine] | −0.09426 |
| CC1(C)S[C@@H]2[C@H](NC(=O)[C@H](N)c3ccc(O)cc3)C(=O)N2[C@H]1C(=O)O [Amoxicillin] | 1.457 |
| C[C@@H]1[C@H](O)[C@@H](C)/C=C/C=C/C=C/C=C/C=C/C=C/C=C/[C@H](O[C@@H]2O[C@H](C)[C@@H](O)[C@H](N)[C@@H]2O)C[C@@H]2O[C@](O)(C[C@@H](O)C[C@@H](O)[C@H](O)CC[C@@H](O)C[C@@H](O)CC(=O)O[C@H]1C)C[C@H](O)[C@H]2C(=O)O [Amphotericin B] | 0.7312 |
| CC1(C)S[C@@H]2[C@H](NC(=O)[C@H](N)c3ccccc3)C(=O)N2[C@H]1C(=O)O [Ampicillin trihydrate] | 1.287 |
| Cc1c(N)c(=O)n(-c2ccccc2)n1C [Ampyrone] | 0.4205 |
| Nc1cc(-c2ccncc2)c[nH]c1=O [Amrinone] | −1.025 |

| SMILES | z.score.t |
| --- | --- |
| c1ccc(CN(CC2=NCCN2)c2ccccc2)cc1 [Antazoline hydrochloride] | −0.004573 |
| Cc1c(O)c(=O)n(-c2ccccc2)n1C [Antipyrine, 4-hydroxy] | 0.04029 |
| O=c1cc(-c2ccc(O)cc2)oc2cc(O)cc(O)c12 [Apigenin] | −0.2904 |
| CN[C@@H]1[C@@H](O[C@H]2O[C@H](CO)[C@@H](N)[C@H](O)[C@H]2O)OC2C[C@@H](N)[C@@H](O[C@H]3[C@H](O)[C@@H](O)[C@H](N)C[C@@H]3N)OC2[C@@H]1O (stereo partly drawn) [Apramycin] | 0.1828 |
| OC[C@H]1O[C@@H](Oc2ccc(O)cc2)[C@H](O)[C@@H](O)[C@@H]1O [Arbutin] | −0.2611 |
| NC(N)=NCCCCN=C(N)N [Arcaine sulfate] | −0.7567 |
| C[C@@H]1CC[C@H]2[C@@H](C)C(=O)O[C@@H]3O[C@@]4(C)CC[C@@H]1[C@]32OO4 [Artemisinin] | −0.5919 |
| CCCNC(C)C(=O)Nc1c(C)csc1C(=O)OC (stereo not drawn) [Articaine hydrochloride] | 0.8481 |
| O=C1O[C@H]([C@@H](O)CO)C(O)=C1O [Ascorbic acid] | −0.7233 |
| COc1ccc(CCN2CCC(Nc3nc4ccccc4n3Cc3ccc(F)cc3)CC2)cc1 [Astemizole] | −1.866 |
| O=C1C(O)=C([C@H]2CC[C@H](c3ccc(Cl)cc3)CC2)C(=O)c2ccccc21 [Atovaquone] | −1.62 |
| COc1ccc(CC2c3cc(OC)c(OC)cc3CC[N+]2(C)CCC(=O)OCCCCCOC(=O)CC[N+]2(C)CCc3cc(OC)c(OC)cc3C2Cc2ccc(OC)c(OC)c2)cc1OC (stereo not drawn) [Atracurium besylate] | 0.5041 |
| Nc1ncn([C@@H]2O[C@H](CO)[C@@H](O)[C@H]2O)c(=O)n1 [Azacytidine-5] | −2.144 |
| Nc1nc(O)c2[nH]nnc2n1 [Azaguanine-8] | −1.365 |
| O=C(CCCN1CCN(c2ccccn2)CC1)c1ccc(F)cc1 [Azaperone] | −0.9039 |
| CCCC1C(=O)N2C(N(C)C)=Nc3ccc(C)cc3N2C1=O (stereo not drawn) [Azapropazone] | 1.176 |
| Cn1cnc([N+](=O)[O-])c1Sc1ncnc2nc[nH]c12 [Azathioprine] | 0.4486 |
| CC1(C)S[C@@H]2[C@H](NC(=O)[C@H](NC(=O)N3CCNC3=O)c3ccccc3)C(=O)N2[C@H]1C(=O)O [Azlocillin sodium salt] | 1.635 |
| C[C@H]1[C@H](NC(=O)/C(=N\OC(C)(C)C(=O)O)c2csc(N)n2)C(=O)N1S(=O)(=O)O [Aztreonam] | 1.36 |
| CCOC(=O)OC(C)OC(=O)[C@@H]1N2C(=O)[C@@H](NC(=O)[C@H](N)c3ccccc3)[C@H]2SC1(C)C (stereo partly drawn) [Bacampicillin hydrochloride] | 0.3231 |
| CC[C@H](C)[C@H](N)C1=N[C@H](C(=O)N[C@@H](CC(C)C)C(=O)N[C@H](CCC(=O)O)C(=O)N[C@H](C(=O)N[C@H]2CCCCNC(=O)[C@H](CC(N)=O)NC(=O)[C@@H](CC(=O)O)NC(=O)[C@H](Cc3cnc[nH]3)NC(=O)[C@@H](Cc3ccccc3)NC(=O)[C@H]([C@@H](C)CC)NC(=O)[C@@H](CCCN)NC2=O)[C@@H](C)CC)CS1 [Bacitracin] (HELM PEPTIDE1{[CC[C@H](C)[C@H](N)C1=N[C@H](C(=O)[*:2])CS1].L.[dE].I.K.[NCCC[C@@H](N[*:1])C(=O)[*:2]].I.[dF].H.[dD].N}$PEPTIDE1,PEPTIDE1,5:R3-11:R2$$$V2.0) | 1.163 |
| O=C(O)CCNC(=O)c1ccc(/N=N/c2ccc(O)c(C(=O)O)c2)cc1 [Balsalazide Sodium] | 0.7914 |
| CN(C)C(=O)Oc1cc(OC(=O)N(C)C)cc(C(O)CNC(C)(C)C)c1 (stereo not drawn) [Bambuterol hydrochloride] | −0.5919 |
| CCC(=O)OCC(=O)[C@@]1(OC(=O)CC)[C@@H](C)C[C@H]2[C@@H]3CCC4=CC(=O)C=C[C@]4(C)[C@@]3(Cl)[C@@H](O)C[C@@]21C [Beclomethasone dipropionate] | −0.2136 |
| NS(=O)(=O)c1cc2c(cc1C(F)(F)F)NC(Cc1ccccc1)NS2(=O)=O (stereo not drawn) [Bendroflumethiazide] | −1.107 |
